Results as given in patent publication US20240293554A1, “QUATERNIZED NICOTINAMIDE ADENINE DINUCLEOTIDE SALVAGE PATHWAY INHIBITOR CONJUGATES” (priority 2017, published 2024).

How the values were obtained:
[1] = tested on: L540cy xenograft; experiment: L540cy Hodgkin's lymphoma xenograft model; type: in vivo, SCID mice; conditions: cAC10 ADC (8 drugs per antibody) from the named Drug Linker compound; for tumor growth delay: single 1 mg/kg dose ip on day 8, tumors ~100 mm^3; for tolerability (weight loss, outward signs of toxicity): single 1 mg/kg dose ip, SCID mice
Procedure: In vivo xenograft models. All experiments were conducted in concordance with the Animal Care and Use Committee in a facility fully accredited by the Association for Assessment and Accreditation of Laboratory Animal Care. Efficacy experiments were conducted in the L540cy Hodgkin's lymphoma model. Tumor cells, as a cell suspension, were implanted sub-cutaneous in immune-compromised SCID mice. Upon tumor engraftment, mice were randomized to study groups (5 mice per group) when the average tumor volume reached about 100 mm^3. The ADC or controls were dosed once via intraperitoneal injection. Tumor volume as a function of time was determined using the formula (L×W^2)/2. Animals were euthanized when tumor volumes reached 750 mm^3. Mice showing durable regressions were terminated after 10-12 weeks post implant.
[…] chimeric antibody cAC10 were prepared from Drug Linker compounds 5 (MDPr-GlucQ-FK866), 12 (MDPr-GlucQ-6050) and 26 (MDPr-GlucQ-6553) to provide ADCs carrying 8 drugs per antibody. Animals were implanted with tumor cells on day 0. Tumors reached ˜100 mm^3 on day 8, and were then treated with a single 1 mg/kg dose (ip) of ADCs.

[2] = tested on: HepG2; experiment: CellTiter-Glo cytotoxicity assay, HepG2; type: cell-based; conditions: HepG2 (hepatocellular carcinoma), 96 h
Procedure: (§1) In vitro cytotoxicity assays: Cells cultured in log-phase growth were seeded for 24 h in 96-well plates containing 150 μL RPMI 1640 supplemented with 20% FBS. Serial dilutions of free drugs or antibody-drug conjugates in cell culture media were prepared at 4× working concentrations; 50 μL of each dilution was added to the 96-well plates. Following addition of ADC, cells were incubated with test articles for 4 d at 37° C. After 96 h, growth inhibition was assessed by CellTiter-Glo™ (Promega, Madison, WI) and luminescence was measured on a plate reader. The IC50 value is defined here as the concentration that results in a 50% reduction in cell growth relative to untreated controls.
(§2) Example 89. Binding and cytoxicity of NAMPTi compounds.
(§3) Karpas 299 (non-Hodgkin's lymphoma), L540cy (Hodgkin's lymphoma), Ramos (Burkitt's lymphoma), HepG2 (hepatocellular carcinoma), Hep3B (hepatocellular carcinoma). NAMPTi compounds of Table 1 have the following structures: […]

[3] = tested on: Ramos; experiment: CellTiter-Glo cytotoxicity assay, Ramos; type: cell-based; conditions: Ramos (Burkitt's lymphoma), 96 h
Procedure: as §1, §2, §3

[4] = tested on: L540cy; experiment: CellTiter-Glo cytotoxicity assay, L540cy; type: cell-based; conditions: L540cy (Hodgkin's lymphoma), 96 h
Procedure: as §1, §2, §3

[5] = target: purified NAMPT (Homo sapiens, UniProt P43490); conditions: read-out: FP assay (IC50); NAMPT 120 nM, fluorescent probe 30 nM, 4 hours room temp
purified NAMPT, sequence (P43490 whole entry): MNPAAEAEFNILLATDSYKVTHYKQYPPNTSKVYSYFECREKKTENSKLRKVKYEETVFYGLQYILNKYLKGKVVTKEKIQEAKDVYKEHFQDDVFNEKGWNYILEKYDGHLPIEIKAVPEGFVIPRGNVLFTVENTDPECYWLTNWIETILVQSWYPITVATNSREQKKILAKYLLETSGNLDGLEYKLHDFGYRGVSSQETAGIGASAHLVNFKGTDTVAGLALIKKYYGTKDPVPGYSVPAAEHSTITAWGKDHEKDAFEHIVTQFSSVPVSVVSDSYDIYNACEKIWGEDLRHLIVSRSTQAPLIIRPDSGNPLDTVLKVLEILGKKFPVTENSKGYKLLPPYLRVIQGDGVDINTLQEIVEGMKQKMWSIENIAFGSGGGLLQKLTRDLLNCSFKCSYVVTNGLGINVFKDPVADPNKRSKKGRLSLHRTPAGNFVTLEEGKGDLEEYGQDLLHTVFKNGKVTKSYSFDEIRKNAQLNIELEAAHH

Compound | tumor growth delay [1] | tolerability (weight loss, outward signs of toxicity) [1] | IC50 [2] | IC50 [3] | IC50 [4] | IC50 [5]
NC[C@@H](C(=O)NCCC(=O)Nc1cc(C[n+]2cccc(/C=C/C(=O)NCCCCC3CCN(C(=O)c4ccccc4)CC3)c2)ccc1O[C@@H]1O[C@H](C(=O)O)[C@@H](O)[C@H](O)[C@H]1O)N1C(=O)C=CC1=O [Compound 5, 1-(3-(3-((S)-3-amino-2-(2,5-dioxo-2,5-dihydro-1H-pyrrol-1-yl)propanamido)propanamido)-4-(((2S, 3R, 4S, 5S, 6S)-6-carboxy-3,4,5-trihydroxy-tetrahydro-2H-pyran-2-yl)oxy)benzyl)-3-((E)-3-((4-(1-benzoylpiperidin-4-yl)butyl)amino)-3-oxoprop-1-en-1-yl)pyridin-1-ium 2,2,2-trifluoroacetate] | varying levels of tumor growth delay | well-tolerated, with no weight loss or outward signs of toxicity observed |  |  |  | 
NC[C@@H](C(=O)NCCC(=O)Nc1cc(C[n+]2cccc(/C=C/C(=O)NCCCCC3CCN(C(=O)c4cccc(N)c4)CC3)c2)ccc1O[C@@H]1O[C@H](C(=O)O)[C@@H](O)[C@H](O)[C@H]1O)N1C(=O)C=CC1=O [Compound 12, 1-(3-(3-((S)-3-ammonio-2-(2,5-dioxo-2,5-dihydro-1H-pyrrol-1-yl)propanamido)propanamido)-4-(((2S,3R,4S,5S,6S)-6-carboxy-3,4,5-trihydroxytetrahydro-2H-pyran-2-yl)oxy)benzyl)-3-((E)-3-((4-(1-(3-ammoniobenzoyl)piperidin-4-yl)butyl)amino)-3-oxoprop-1-en-1-yl)pyridin-1-ium 2,2,2-trifluoroacetate] | varying levels of tumor growth delay | well-tolerated, with no weight loss or outward signs of toxicity observed |  |  |  | 
CC(C)(C)OC(=O)NC[C@@H](C(=O)NCCC(=O)Nc1cc(C[n+]2ccn3cc(C(=O)NCc4ccc(S(=O)(=O)c5cc(F)cc(F)c5)cc4)ccc32)ccc1O[C@@H]1O[C@H](C(=O)O)[C@@H](O)[C@H](O)[C@H]1O)N1C(=O)C=CC1=O [Compound 29, 1-(3-(3-((S)-3-((tert-butoxycarbonyl)amino)-2-(2,5-dioxo-2,5-dihydro-1H-pyrrol-1-yl)propanamido)propanamido)-4-(((2S,3R,4S,5S,6S)-6-carboxy-3,4,5-trihydroxytetrahydro-2H-pyran-2-yl)oxy)benzyl)-6-((4-((3,5-difluorophenyl)-sulfonyl)benzyl)carbamoyl)imidazo[1,2-a]pyridin-1-ium 2,2,2-trifluoroacetate] |  |  | 1.08 nM | 0.71 nM | 0.78 nM | 36 nM
NCCC(=O)Nc1cc(C[n+]2ccn3cc(C(=O)NCc4ccc(S(=O)(=O)c5cc(F)cc(F)c5)cc4)ccc32)ccc1O[C@@H]1O[C@H](C(=O)O)[C@@H](O)[C@H](O)[C@H]1O [Compound 28, 1-(3-(3-ammoniopropanamido)-4-(((2S,3R,4S,5S,6S)-6-carboxy-3,4,5-trihydroxytetrahydro-2H-pyran-2-yl)oxy)benzyl)-6-((4-((3,5-difluorophenyl)-sulfonyl)benzyl)carbamoyl)imidazo[1,2-a]pyridin-1-ium 2,2,2-trifluoroacetate] |  |  | 8 nM | 1 nM | 8.5 nM | 47 nM
CN(CC1(CO)CCCC1)C(=O)CCCCCCCN/C(=N\C#N)Nc1cc[n+](Cc2ccc(O[C@@H]3O[C@H](C(=O)O)[C@@H](O)[C@H](O)[C@H]3O)c(NC(=O)CCNC(=O)CCN3C(=O)C=CC3=O)c2)cc1 [Compound 26, 1-(4-(((2S,3R,4S,5S,6S)-6-carboxy-3,4,5-trihydroxytetrahydro-2H-pyran-2-yl)oxy)-3-(3-(3-(2,5-dioxo-2,5-dihydro-1H-pyrrol-1-yl)propanamido)-propanamido)benzyl)-4-((E)-2-cyano-3-(8-(((1-(hydroxymethyl)cyclopentyl)methyl)-(methyl)amino)-8-oxooctyl)guanidino)pyridin-1-ium 2,2,2-trifluoroacetate] | varying levels of tumor growth delay | well-tolerated, with no weight loss or outward signs of toxicity observed |  |  |  | 
